Common to all, as to type: biochemical
Experiment [1] deals with T1, Recombinant human calpain I (Homo sapiens, UniProt P07384).
T1 construct: made in house
T1 sequence (P07384 1-714): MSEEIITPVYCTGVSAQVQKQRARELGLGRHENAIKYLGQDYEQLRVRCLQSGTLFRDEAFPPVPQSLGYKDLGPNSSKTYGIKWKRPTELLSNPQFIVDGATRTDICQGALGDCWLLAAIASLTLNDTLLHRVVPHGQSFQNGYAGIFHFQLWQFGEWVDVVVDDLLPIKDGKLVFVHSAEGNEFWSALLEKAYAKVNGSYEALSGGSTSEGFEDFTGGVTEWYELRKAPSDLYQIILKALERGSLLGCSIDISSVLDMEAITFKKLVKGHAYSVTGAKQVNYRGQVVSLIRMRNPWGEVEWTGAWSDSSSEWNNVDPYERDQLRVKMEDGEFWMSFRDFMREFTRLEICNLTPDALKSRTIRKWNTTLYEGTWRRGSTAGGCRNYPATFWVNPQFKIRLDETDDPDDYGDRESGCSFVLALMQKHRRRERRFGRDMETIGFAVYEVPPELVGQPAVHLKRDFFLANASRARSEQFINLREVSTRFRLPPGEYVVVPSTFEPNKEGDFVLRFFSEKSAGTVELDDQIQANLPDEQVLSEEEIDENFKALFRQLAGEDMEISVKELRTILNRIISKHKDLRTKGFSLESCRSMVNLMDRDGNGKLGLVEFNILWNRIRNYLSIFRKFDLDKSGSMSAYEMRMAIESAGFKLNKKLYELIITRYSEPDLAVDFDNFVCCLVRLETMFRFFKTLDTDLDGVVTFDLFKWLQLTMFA
Put plainly: Inhibition of calpain I activity.

The next experiment has as its target T2, thrombin (Homo sapiens, UniProt P00734).
T2 construct: purchased Sigma Chem. Co. T-7009
The experiment in a line: Inhibition of thrombin. Particulars: 10 uM, read-out: Thrombin % I @ 10 uM.

A further experiment concerns the target T3, cathepsin B (Homo sapiens, UniProt P07858).
T3 construct: purchased Calbiochem 219364
Put plainly: Inhibition of cathepsin B. To be noted: for inhibition at 1 µM: read-out: Cat B % I @ 1 uM; for IC50: read-out: Cat B IC50. The procedure: (§1) Additionally,the order of reagents added to the plate was altered because both enzymes are constitutively active. Following inhibitor addition to the plates, appropriate 2× concentrated stock dilutions of the enzyme preparations were made in assay buffer and 100 μl added to each well. The assay was initiated by addition of 100 μl of 2× concentrated stock dilution of substrate in assay buffer.

For another experiment, the target named is T4, cathepsin L (Homo sapiens, UniProt P07711).
T4 construct: purchased Calbiochem 219402
The experiment in a line: Inhibition of cathepsin L. Particulars: for inhibition at 1 µM: Table III, read-out: Cat L % I @ 1 uM. The procedure: as §1

The target of a further experiment is T5, α-chymotrypsin (Bos taurus, UniProt P00766).
T5 construct: purchased Sigma Chem. Co. C-3142
The experiment in a line: Inhibition of α-chymotrypsin. Particulars: 10 uM, read-out: Chymotrypsin % I @ 10 uM. A digest of the protocol: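 Enzyme added to inhibitor first, then reaction started with substrate; no calcium activation needed as enzyme is constitutively active. Fluorogenic substrate hydrolysis read every 5 min up to 30 min ([…]).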

Like-named read-outs stand apart in the source and are kept apart here. Square brackets hold non-standard residues; d marks the D form. Peptide text beside a SMILES is read from it. * marks the point of attachment. d2Thi = N[C@H](Cc1cccs1)C(=O)O; Tos = Cc1ccc(S(=O)(=O)*)cc1; dΔPro = O=C(O)[C@H]1C=CCN1; Abu = CC[C@H](N)C(=O)O; Bn = c1ccc(C*)cc1; Ms = CS(=O)(=O)*

T4 sequence (P07711 114-288 limits assumed): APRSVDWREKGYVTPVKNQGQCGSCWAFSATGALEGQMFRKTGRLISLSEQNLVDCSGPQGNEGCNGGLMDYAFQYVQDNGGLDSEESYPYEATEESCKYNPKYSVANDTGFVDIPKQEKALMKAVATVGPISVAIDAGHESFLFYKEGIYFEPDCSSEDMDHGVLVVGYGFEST
T4 sequence (P07711 292-333 limits assumed): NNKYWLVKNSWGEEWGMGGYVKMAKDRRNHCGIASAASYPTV

In general, IC50 refers to the midpoint of a concentration-inhibition curve. `CC(C)(C)OC(=O)NCCCC[C@@H](C=O)NC(=O)[C@@H](COCc1ccccc1)NS(C)(=O)=O` [Compound 93]: the IC50 in experiment [1] (Table III) was determined as 9 nM. Moreover, the inhibition at 0.1 µM in experiment [1] (Table III) amounted to 95%. Also, the inhibition at 10 µM at thrombin (Table III) and on α-chymotrypsin (Table III) was 0% in each case. In addition, the inhibition at 1 µM is 99% on cathepsin B (Table III) and 100% at cathepsin L.
Turning to `Cc1ccc(S(=O)(=O)N2CC=C[C@@H]2C(=O)N[C@H](C=O)Cc2ccccc2)cc1` [Compound 130] (Tos-[dΔPro]-Phe-aldehyde), the IC50 in experiment [1] (Table III) was 10 nM. Besides, the inhibition at 0.1 µM in experiment [1] (Table III) is 90%. The inhibition at 10 µM at thrombin (Table III) was found to be 9%; on α-chymotrypsin (Table III) it was 0%. The results for the inhibition at 1 µM at cathepsin B (Table III) and at cathepsin L were 62% and 97%, respectively.
Consider `CS(=O)(=O)N[C@H](COCc1ccccc1)C(=O)N[C@H](C=NO)Cc1ccccc1` [Compound 118], for which, in experiment [1] (Table III), the inhibition at 0.1 µM stood at 31%. For the same molecule, the inhibition at 10 µM on thrombin (Table III) turned out to be 0%; on α-chymotrypsin (Table III) it was 8%. Moreover, the inhibition at 1 µM at cathepsin B (Table III) was determined as 33%; on cathepsin L, 99%.
For `CS(=O)(=O)N[C@H](Cc1cccs1)C(=O)N[C@H](C=O)Cc1ccccc1` [Compound 100] (Ms-[d2Thi]-Phe-aldehyde), the IC50 in experiment [1] (Table III) was determined as 15 nM; at cathepsin B (Table III), 31 nM. The inhibition at 0.1 µM in experiment [1] (Table III) was found to be 96%. Besides, the inhibition at 10 µM at thrombin (Table III) and on α-chymotrypsin (Table III) was 0% in each case. The figures for the inhibition at 1 µM at cathepsin B (Table III) and on cathepsin L were 97% and 100%, respectively.
Regarding `CS(=O)(=O)N[C@H](Cc1ccccc1)C(=O)N[C@H](C=O)Cc1ccccc1` [Compound 70] (Ms-[dF]-Phe-aldehyde), the IC50 in experiment [1] (Table III) came out at 16 nM. For the same molecule, in experiment [1] (Table III), the inhibition at 0.1 µM stood at 85%. Also, the inhibition at 10 µM came to 0% on thrombin (Table III) and 12% on α-chymotrypsin (Table III). Further, the inhibition at 1 µM stood at 90% on cathepsin B (Table III) and 100% on cathepsin L.
`O=C[C@H](Cc1ccccc1)NC(=O)[C@@H](COCc1ccccc1)NC(=O)OCc1ccccc1` [Compound 64]: the inhibition at 0.1 µM in experiment [1] (Table III) amounted to 68%. In addition, the inhibition at 10 µM on thrombin (Table III) turned out to be 0%; on α-chymotrypsin (Table III), 10%. Moreover, the inhibition at 1 µM worked out at 87% on cathepsin B (Table III) and 100% at cathepsin L.
`CC[C@@H](C=O)NC(=O)[C@@H](COCc1ccccc1)NS(C)(=O)=O` [Compound 41] (Ms-[dS](Bn)-[Abu]-aldehyde): the IC50 in experiment [1] (Table III) was determined as 50 nM. The inhibition at 0.1 µM in experiment [1] (Table III) amounted to 67%. Besides, the inhibition at 10 µM is 2% on thrombin (Table III) and 0% at α-chymotrypsin (Table III). The inhibition at 1 µM on cathepsin B (Table III) amounted to 42%; on cathepsin L, 100%.
In the case of `O=C[C@H](Cc1ccccc1)NC(=O)[C@@H](COCc1ccccc1)N1C(=O)c2ccccc2C1=O` [Compound 94], the inhibition at 0.1 µM in experiment [1] (Table III) was 14%. Moreover, the inhibition at 10 µM at thrombin (Table III) came out at 0%; at α-chymotrypsin (Table III) it was 1%. Further, the results for the inhibition at 1 µM at cathepsin B (Table III) and on cathepsin L were 0% and 93%, respectively.
Take `CS(=O)(=O)N[C@H](CC(=O)N1CCc2ccccc2C1)C(=O)N[C@H](C=O)Cc1ccccc1` [Compound 14, 2-THIQ-C(=O)CH2 CH(NHS(=O)2 CH3)C(=O)-Phe--H]: the IC50 in experiment [1] (Table II) turned out to be 20 nM; at cathepsin B (Table II), 145 nM; on cathepsin L (Table II, read-out: Cat L IC50) it was 56 nM. Also, the inhibition at 10 µM on thrombin (Table II) is 0%; at α-chymotrypsin (Table II), 11%.
For the molecule `CS(=O)(=O)N[C@H](C(=O)N[C@H](C=O)Cc1ccccc1)c1cccs1` [Compound 97], in experiment [1] (Table III), the IC50 came out at 37 nM. The inhibition at 0.1 µM in experiment [1] (Table III) is 79%. Besides, the figures for the inhibition at 10 µM at thrombin (Table III) and at α-chymotrypsin (Table III) were 4% and 25%, respectively. In addition, the values for the inhibition at 1 µM on cathepsin B (Table III) and on cathepsin L were 89% and 100%, respectively.
Regarding `O=C[C@H](Cc1ccccc1)NC(=O)[C@@H](COCc1ccccc1)NS(=O)(=O)c1ccc(F)cc1` [Compound 46], in experiment [1] (Table III), the IC50 was found to be 24 nM. In experiment [1] (Table III), the inhibition at 0.1 µM was determined as 90%. The values for the inhibition at 10 µM at thrombin (Table III) and on α-chymotrypsin (Table III) were 15% and 6%, respectively. The inhibition at 1 µM on cathepsin B (Table III) and at cathepsin L was 100% each time.
Turning to `O=C[C@H](Cc1ccccc1)NC(=O)[C@@H](COCc1ccccc1)NS(=O)(=O)N1CCOCC1` [Compound 53], the IC50 in experiment [1] (Table III) was 72 nM. Besides, the inhibition at 0.1 µM in experiment [1] (Table III) worked out at 25%. The inhibition at 10 µM at thrombin (Table III) and on α-chymotrypsin (Table III) was 0% in each case. Further, the inhibition at 1 µM on cathepsin B (Table III) turned out to be 98%; at cathepsin L, 100%.
As to `CS(=O)(=O)N1CCC[C@@H]1C(=O)N[C@H](C=O)Cc1ccccc1` [Compound 101] (Ms-[dP]-Phe-aldehyde), the IC50 in experiment [1] (Table III) was 53 nM. Moreover, in experiment [1] (Table III), the inhibition at 0.1 µM was 84%. Besides, the inhibition at 10 µM on thrombin (Table III) was 0%; at α-chymotrypsin (Table III) it was 2%. The inhibition at 1 µM was found to be 46% at cathepsin B (Table III) and 100% at cathepsin L.
As to `O=C[C@H](Cc1ccccc1)NC(=O)[C@@H](COCc1ccccc1)NS(=O)(=O)c1ccc2ccccc2c1` [Compound 52], the figures for the half-maximal inhibitory concentration (IC50) (in experiment [1] (Table III); on cathepsin B (Table III)) were 28 nM and 4 nM, respectively. The inhibition at 0.1 µM in experiment [1] (Table III) worked out at 93%. Also, the inhibition at 10 µM came out at 10% on thrombin (Table III) and 0% at α-chymotrypsin (Table III). For the same molecule, the inhibition at 1 µM on cathepsin B (Table III) and at cathepsin L was 100% in each case.
As for `CCNC(=O)OC[C@H](Cc1ccccc1)NC(=O)[C@H]1CCCN1S(=O)(=O)c1ccc(C)cc1` [Compound 123], the inhibition at 0.1 µM in experiment [1] (Table III) turned out to be 7%. Also, the results for the inhibition at 10 µM at thrombin (Table III) and on α-chymotrypsin (Table III) were 0% and 2%, respectively. For the same molecule, the inhibition at 1 µM at cathepsin B (Table III) worked out at 16%; at cathepsin L it was 14%.
As to `CC(C)C[C@@H](NS(C)(=O)=O)C(=O)N[C@H](C=O)Cc1ccccc1` [Compound 86] (Ms-[dL]-Phe-aldehyde), the IC50 in experiment [1] (Table III) is 40 nM. The inhibition at 0.1 µM in experiment [1] (Table III) is 72%. The inhibition at 10 µM at thrombin (Table III) came out at 0%; at α-chymotrypsin (Table III), 8%. Besides, the inhibition at 1 µM was 78% at cathepsin B (Table III) and 100% at cathepsin L.
In the case of `CS(=O)(=O)N[C@H](COCc1ccccc1)C(=O)N[C@@H](C=O)Cc1ccccc1` [Compound 84], in experiment [1] (Table III), the inhibition at 0.1 µM came out at 2%. In addition, the inhibition at 10 µM at thrombin (Table III) and at α-chymotrypsin (Table III) was 0% throughout. The inhibition at 1 µM on cathepsin B (Table III) is 22%; at cathepsin L, 93%.
For the molecule `CS(=O)(=O)N[C@H](COCc1ccccc1)C(=O)N[C@@H](Cc1ccccc1)C(O)S(=O)(=O)O` (some centres unmarked) [Compound 128], the IC50 in experiment [1] (Table III) turned out to be 8 nM. Also, the inhibition at 0.1 µM in experiment [1] (Table III) was found to be 89%. Also, the inhibition at 10 µM on thrombin (Table III) was 0%; at α-chymotrypsin (Table III), 1%. The inhibition at 1 µM was found to be 99% on cathepsin B (Table III) and 100% at cathepsin L.
